Laboratory results: article PMC2810428 (Journal of medicinal chemistry, 2010)

Experiments:
SK-OV-3-MDR 1–6/6 = SK-OV-3-MDR 1–6/6 vs SK-OV-3 pair; ref [32]; cited from earlier work
WTβIII = WTβIII vs HeLa pair; ref [32]; cited from earlier work
L1210 and B16 cells = settings: read-out: reported IC50 values for L1210 and B16 cells; ref [3]–[5]; cited from earlier work
L1210 cells = assay: Inhibition of L1210 cell growth; assay type: cell-based, murine; settings: L1210 IC50, 9b versus 9a
MDA-MB-435 cells = assay: Cell cycle analysis by flow cytometry; assay type: cell-based, human; settings: paclitaxel positive control (0.0125 µM), data not shown

COc1cc2c(cc1O)CC[C@@H]1[C@@H]2CC[C@]2(C)[C@@H](O)CC[C@@H]12 [2-methoxyestradiol]
Rr (relative resistance) (SK-OV-3-MDR 1–6/6): 2.6
Rr (relative resistance) (WTβIII): 1.0

COc1ccc(/C=C\c2cc(OC)c(OC)c(OC)c2)cc1O [Compound 1, Combretastatin A-4]
IC50 (L1210 and B16 cells): 3 to 7 nM

COc1cc(C2=NN(C(C)=O)C(c3cccc([N+](=O)[O-])c3)O2)cc(OC)c1OC (stereo not shown) [Compound 9b]
fold decrease in potency on shifting nitro group to the 3’ position (L1210 cells): 9 fold

CC(=O)O[C@H]1C(=O)[C@@]2(C)[C@H]([C@H](OC(=O)c3ccccc3)[C@]3(O)C[C@H](OC(=O)[C@H](O)[C@@H](NC(=O)c4ccccc4)c4ccccc4)C(C)=C1C3(C)C)[C@]1(OC(C)=O)CO[C@@H]1C[C@@H]2O [paclitaxel]
Rr (relative resistance) (SK-OV-3-MDR 1–6/6): 860
cell cycle distribution (MDA-MB-435 cells): identical effect
Rr (relative resistance) (WTβIII): 4.7
